Source: patent publication US5010005A, “Bio-oxidation of high alcohols in non-aqueous reaction media” (priority 1989, dated 1991)
≈ marks a conversion by molar mass, not a printed value. Where two headings read alike, the source gives them in different places.

Experiments:
alcohol oxidase = biological target: T1, alcohol oxidase (Komagataella phaffii, UniProt P04842); assay: Inhibition of alcohol oxidase by benzaldehyde; type: biochemical, Pichia pastoris
T1 construct: purchased Provesta Corp. (Bartlesville, Oklahoma)
T1 sequence (P04842 2-663 limits assumed): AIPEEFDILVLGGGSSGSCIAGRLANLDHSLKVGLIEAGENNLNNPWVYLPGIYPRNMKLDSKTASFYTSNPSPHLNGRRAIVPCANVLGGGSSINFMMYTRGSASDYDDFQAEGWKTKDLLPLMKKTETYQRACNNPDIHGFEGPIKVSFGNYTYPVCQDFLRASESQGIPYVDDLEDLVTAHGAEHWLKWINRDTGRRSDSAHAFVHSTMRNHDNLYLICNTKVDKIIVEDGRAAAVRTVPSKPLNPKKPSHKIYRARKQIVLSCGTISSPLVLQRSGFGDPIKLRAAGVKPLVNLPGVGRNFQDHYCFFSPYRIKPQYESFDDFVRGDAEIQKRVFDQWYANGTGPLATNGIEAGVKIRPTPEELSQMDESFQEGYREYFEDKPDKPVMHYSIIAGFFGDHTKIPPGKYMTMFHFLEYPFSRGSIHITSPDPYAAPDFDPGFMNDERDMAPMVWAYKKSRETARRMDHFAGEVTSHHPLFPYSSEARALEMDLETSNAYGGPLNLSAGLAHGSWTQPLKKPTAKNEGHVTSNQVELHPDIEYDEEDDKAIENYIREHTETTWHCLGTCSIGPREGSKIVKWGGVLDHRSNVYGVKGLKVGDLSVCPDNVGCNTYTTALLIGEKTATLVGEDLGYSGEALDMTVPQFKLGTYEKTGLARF
Excerpt: Similar potent inhibition of yeast alcohol dehydrogenase by aliphatic and aromatic aldehydes including benzaldehyde has been reported (W.R. Bowen et al, J. Chem. Tech. Biotechnol. 36: 191-196, 1986). In two phase systems, the degree to which alcohol oxidase is inhibited by benzaldehyde is controlled by the concentration of the inhibitor, the concentration of the enzyme, the solvent chosen as a reaction fluid, and on the volumetric ratio of the two phases present. The effect of the first two factors is obvious, however the latter two parameters play an important role in determining the effective concentration of the inhibitor; that concentration to which the biocatalyst is exposed, potentially causing inhibition. Benzaldehyde partitions differently between the two phases depending on the solvent chosen. For example, using toluene as an extractant benzaldehyde was efficiently stripped from the aqueous phase (Table 2) and was, therefore, less able to inhibit alcohol oxidase. It is possible that this would result in improved yields over extended reaction times, despite the sacrifice in terms of initial reaction rate.

[1] = Partitioning of benzyl alcohol and benzaldehyde between 0.1 M phosphate buffer and solvent; type: physicochemical
Experimental: The partitioning of benzyl alcohol and benzaldehyde between 0.1 M phosphate buffer and each solvent used were measured as follows: benzyl alcohol (10 g/L) and benzaldehyde (10 g/L) were dissolved in each of the solvents of interest. Ten millilitres of each solvent were then dispensed into a test tube containing 10 ml of 0.1 M phosphate buffer (pH 8). The tubes were capped, vortexed, and the mixture was allowed to equilibrate for 1 hr at 30° C. Both phases were then assayed for benzaldehyde and benzyl alcohol as described above. […]

Solubility in water = type: physicochemical

For `O=Cc1ccccc1` [benzaldehyde], the “Inhibition of alcohol oxidase” value (alcohol oxidase) was “very strongly inhibited”, the “Inhibition of alcohol oxidase” value (alcohol oxidase; listed as Benzaldehyde) was “extremely potent inhibitor” and the “Partition Coefficient (Corg /Caq)” value ([1]; Ether / 0.1 M phosphate buffer pH 8, 30° C.) was 69.4. The “Partition Coefficient (Corg /Caq)” value ([1]; Ethylacetate / 0.1 M phosphate buffer pH 8, 30° C.) was 62.0, the “Partition Coefficient (Corg /Caq)” value ([1]; Hexane / 0.1 M phosphate buffer pH 8, 30° C.) was 15.4 and the “Partition Coefficient (Corg /Caq)” value ([1]; Toluene / 0.1 M phosphate buffer pH 8, 30° C.) was 100. The solubility (Solubility in water) was roughly 3000 µg/mL (≈ 28.3 mM).
